# In ChEMBL document CHEMBL3885861, “Open TG-GATES”:
# Species: Rattus norvegicus
# Assay: Open TG-GATES - Regimen: Daily Repeat
# Format: toxicity, organism-based, Sprague-Dawley
# Design: regimen Daily Repeat, gender Male, age 6 weeks
# Details: in vivo, po, 600 mg/kg, route gavage, dose level High; for ALP / ALT / CRE / DBIL / GLC / IP / K / LDH / Na / PL / RALB / TBIL / TC / TG / TP / gamma-GTP / BUN: tissue Plasma
smiles,measurement,setting,value
CCN(CC)C(=S)SSC(=S)N(CC)CC,TERMINAL_BW,"72 h, time 3 day",211.3 g
same,APTT,"72 h, tissue Blood, time 3 day",23.3 s
same,Bas,"72 h, tissue Blood, time 3 day",0%
same,Eos,"72 h, tissue Blood, time 3 day",0.6%
same,Fbg,"72 h, tissue Blood, time 3 day",405.6 mg/dL
same,Hb,"72 h, tissue Blood, time 3 day",12.6 g/dL
same,Ht,"72 h, tissue Blood, time 3 day",37.8%
same,MCH,"72 h, tissue Blood, time 3 day",20.2 pg
same,MCHC,"72 h, tissue Blood, time 3 day",33.3%
same,MCV,"72 h, tissue Blood, time 3 day",60.9 fL
same,Mono,"72 h, tissue Blood, time 3 day",2.4%
same,PT,"72 h, tissue Blood, time 3 day",15.5 s
same,Plat,"72 h, tissue Blood, time 3 day",118.3 x10_4/uL
same,RBC,"72 h, tissue Blood, time 3 day",623 x10_4/ul
same,Ret,"72 h, tissue Blood, time 3 day",4.4%
same,WBC,"72 h, tissue Blood, time 3 day",61.8 x10_2/uL
same,ALP,"72 h, time 3 day",963 IU/L
same,ALT,"72 h, time 3 day",47.6 IU/L
same,CRE,"72 h, time 3 day",0.1 mg/dL
same,DBIL,"72 h, time 3 day",0.02 mg/dL
same,GLC,"72 h, time 3 day",162 mg/dL
same,IP,"72 h, time 3 day",7.7 mg/dL
same,K,"72 h, time 3 day",3.7 meq/L
same,LDH,"72 h, time 3 day",341.6 IU/L
same,Na,"72 h, time 3 day",144 meq/L
same,PL,"72 h, time 3 day",212.8 mg/dL
same,RALB,"72 h, time 3 day",3 g/dL
same,TBIL,"72 h, time 3 day",0.018 mg/dL
same,TC,"72 h, time 3 day",147.4 mg/dL
same,TG,"72 h, time 3 day",29.4 mg/dL
same,TP,"72 h, time 3 day",5.8 g/dL
same,gamma-GTP,"72 h, time 3 day",1.4 IU/L
same,TERMINAL_BW,"[…], time 7 day",217.6 g
same,TERMINAL_BW,"[…], time 14 day",270 g
same,TERMINAL_BW,"[…], time 28 day",304.2 g
same,APTT,"[…], tissue Blood, time 7 day",25.8 s
same,Bas,"[…], tissue Blood, time 7 day",0%
same,Eos,"[…], tissue Blood, time 7 day",0.5%
same,Fbg,"[…], tissue Blood, time 7 day",408.2 mg/dL
same,Hb,"[…], tissue Blood, time 7 day",13.4 g/dL
same,Ht,"[…], tissue Blood, time 7 day",40%
same,Lym,"[…], tissue Blood, time 7 day",64.8%
same,MCH,"[…], tissue Blood, time 7 day",19.7 pg
same,MCHC,"[…], tissue Blood, time 7 day",33.5%
same,MCV,"[…], tissue Blood, time 7 day",58.8 fL
same,Mono,"[…], tissue Blood, time 7 day",5%
same,Neu,"[…], tissue Blood, time 7 day",28.8%
same,PT,"[…], tissue Blood, time 7 day",18.8 s
same,Plat,"[…], tissue Blood, time 7 day",130.8 x10_4/uL
same,RBC,"[…], tissue Blood, time 7 day",681.5 x10_4/ul
same,Ret,"[…], tissue Blood, time 7 day",4.8%
same,WBC,"[…], tissue Blood, time 7 day",88.4 x10_2/uL
same,APTT,"[…], tissue Blood, time 14 day",22.8 s
same,Bas,"[…], tissue Blood, time 14 day",0%
same,Eos,"[…], tissue Blood, time 14 day",1%
same,Fbg,"[…], tissue Blood, time 14 day",377.4 mg/dL
same,Hb,"[…], tissue Blood, time 14 day",13.4 g/dL
same,Ht,"[…], tissue Blood, time 14 day",38.3%
same,MCH,"[…], tissue Blood, time 14 day",19.6 pg
same,MCHC,"[…], tissue Blood, time 14 day",35%
same,MCV,"[…], tissue Blood, time 14 day",55.9 fL
same,Mono,"[…], tissue Blood, time 14 day",2.4%
same,Neu,"[…], tissue Blood, time 14 day",22.6%
same,PT,"[…], tissue Blood, time 14 day",16.8 s
same,RBC,"[…], tissue Blood, time 14 day",683.8 x10_4/ul
same,Ret,"[…], tissue Blood, time 14 day",5.7%
same,WBC,"[…], tissue Blood, time 14 day",85.1 x10_2/uL
same,APTT,"[…], tissue Blood, time 28 day",20.8 s
same,Bas,"[…], tissue Blood, time 28 day",0%
same,Eos,"[…], tissue Blood, time 28 day",1%
same,Fbg,"[…], tissue Blood, time 28 day",382.2 mg/dL
same,Hb,"[…], tissue Blood, time 28 day",13.4 g/dL
same,Ht,"[…], tissue Blood, time 28 day",38.9%
same,MCH,"[…], tissue Blood, time 28 day",18.9 pg
same,MCHC,"[…], tissue Blood, time 28 day",34.5%
same,MCV,"[…], tissue Blood, time 28 day",54.9 fL
same,Mono,"[…], tissue Blood, time 28 day",2.6%
same,Neu,"[…], tissue Blood, time 28 day",17.8%
same,PT,"[…], tissue Blood, time 28 day",17.4 s
same,Plat,"[…], tissue Blood, time 28 day",99.3 x10_4/uL
same,RBC,"[…], tissue Blood, time 28 day",708.2 x10_4/ul
same,Ret,"[…], tissue Blood, time 28 day",4.8%
same,WBC,"[…], tissue Blood, time 28 day",98.6 x10_2/uL
same,ALP,"[…], time 7 day",563.5 IU/L
same,ALT,"[…], time 7 day",41.8 IU/L
same,BUN,"[…], time 7 day",17.5 mg/dL
same,CRE,"[…], time 7 day",0.2 mg/dL
same,DBIL,"[…], time 7 day",0.0275 mg/dL
same,GLC,"[…], time 7 day",147.5 mg/dL
same,IP,"[…], time 7 day",7.2 mg/dL
same,K,"[…], time 7 day",4.3 meq/L
same,LDH,"[…], time 7 day",354.2 IU/L
same,Na,"[…], time 7 day",145.2 meq/L
same,PL,"[…], time 7 day",201 mg/dL
same,RALB,"[…], time 7 day",2.9 g/dL
same,TBIL,"[…], time 7 day",0.025 mg/dL
same,TG,"[…], time 7 day",16.5 mg/dL
same,TP,"[…], time 7 day",5.8 g/dL
same,gamma-GTP,"[…], time 7 day",2.5 IU/L
same,ALP,"[…], time 14 day",1017.2 IU/L
same,ALT,"[…], time 14 day",34 IU/L
same,BUN,"[…], time 14 day",21 mg/dL
same,CRE,"[…], time 14 day",0.2 mg/dL
same,DBIL,"[…], time 14 day",0.004 mg/dL
same,GLC,"[…], time 14 day",161.2 mg/dL
same,IP,"[…], time 14 day",6.9 mg/dL
same,K,"[…], time 14 day",4.1 meq/L
same,LDH,"[…], time 14 day",173.8 IU/L
same,Na,"[…], time 14 day",142.8 meq/L
same,PL,"[…], time 14 day",178.8 mg/dL
same,RALB,"[…], time 14 day",3.3 g/dL
same,TBIL,"[…], time 14 day",0.024 mg/dL
same,TC,"[…], time 14 day",109.4 mg/dL
same,TG,"[…], time 14 day",29.2 mg/dL
same,TP,"[…], time 14 day",6.2 g/dL
same,gamma-GTP,"[…], time 14 day",2.8 IU/L
same,ALP,"[…], time 28 day",651.8 IU/L
same,ALT,"[…], time 28 day",34.2 IU/L
same,BUN,"[…], time 28 day",19.6 mg/dL
same,CRE,"[…], time 28 day",0.2 mg/dL
same,DBIL,"[…], time 28 day",0.014 mg/dL
same,GLC,"[…], time 28 day",156.8 mg/dL
same,IP,"[…], time 28 day",6.1 mg/dL
same,K,"[…], time 28 day",3.8 meq/L
same,LDH,"[…], time 28 day",159.2 IU/L
same,Na,"[…], time 28 day",143 meq/L
same,PL,"[…], time 28 day",166.6 mg/dL
same,RALB,"[…], time 28 day",3.2 g/dL
same,TBIL,"[…], time 28 day",0.044 mg/dL
same,TC,"[…], time 28 day",112.4 mg/dL
same,TG,"[…], time 28 day",16.2 mg/dL
same,TP,"[…], time 28 day",6.4 g/dL
same,gamma-GTP,"[…], time 28 day",2.8 IU/L
